# Measurements published in patent US20050154042A1, “N-alkyl pyrroles as HMG-CoA reductase inhibitors” (priority 2003, published 2005).
row,melting point,SMILES
1,178 to 180 °C,"CC(C)n1c(CC[C@@H](O)C[C@@H](O)CC(=O)[O-])c(-c2ccc(F)cc2)c(-c2ccccc2)c1C(=O)NCc1ccc(C#N)cc1.[Na+] [Example 144, (3R,5R)-7-[5-(4-Cyano-benzylcarbamoyl)-3-(4-fluoro-phenyl)-1-isopropyl-4-phenyl-1H-pyrrol-2-yl]-3,5-dihydroxy-heptanoic Acid Sodium Salt]"
2,199 to 201 °C,"CC(C)OC(=O)c1ccc(CNC(=O)c2c(-c3ccccc3)c(-c3ccc(F)cc3)c(CC[C@@H](O)C[C@@H](O)CC(=O)[O-])n2C(C)C)cc1.[Na+] [Example 148, (3R,5R)-7-[3-(4-Fluoro-phenyl)-5-(4-isopropoxycarbonyl-benzylcarbamoyl)-1-isopropyl-4-phenyl-1H-pyrrol-2-yl]-3,5-dihydroxy-heptanoic Acid Sodium Salt]"
3,227 to 229 °C,"COc1ccc([C@H](C)NC(=O)c2c(-c3ccc(F)cc3)c(-c3ccc(F)cc3)c(CC[C@@H](O)C[C@@H](O)CC(=O)[O-])n2C(C)C)cc1.[Na+] [Example 152, (3R,5R)-7-{3,4-Bis-(4-fluoro-phenyl)-1-isopropyl-5-[(S)—I-(4-methoxy-phenyl)-ethylcarbamoyl]-1H-pyrrol-2-yl]-3,5-dihydroxy-heptanoic Acid Sodium Salt]"
4,225 to 227 °C,"COc1ccc([C@@H](C)NC(=O)c2c(-c3ccc(F)cc3)c(-c3ccc(F)cc3)c(CC[C@@H](O)C[C@@H](O)CC(=O)[O-])n2C(C)C)cc1.[Na+] [Example 154, (3R,5R)-7-{3,4-Bis-(4-fluoro-phenyl)-1-isopropyl-5-[(R)-1-(4-methoxy-phenyl)-ethylcarbamoyl]-1H-pyrrol-2-yl}-3,5-dihydroxy-heptanoic Acid Sodium Salt]"
5,298 to 300 °C,"CC(C)n1c(CC[C@@H](O)C[C@@H](O)CC(=O)[O-])c(-c2ccc(F)cc2)c(-c2ccc(F)cc2)c1C(=O)NCc1ccc(C(=O)[O-])cc1.[Na+].[Na+] [Example 162, (3R,5R)-4-({[5-(6-Carboxy-3,5-dihydroxy-hexyl)-3,4-bis-(4-fluoro-phenyl)-1-isopropyl-1H-pyrrole-2-carbonyl]-amino}-methyl)-benzoic Acid Disodium Salt]"
6,240 to 245 °C,"CC(C)n1c(CC[C@@H](O)C[C@@H](O)CC(=O)[O-])c(-c2ccc(F)cc2)c(-c2ccccc2)c1C(=O)NCc1cccc(C(=O)[O-])c1.[Na+].[Na+] [Example 163, (3R,5R)-3-({[5-(6-Carboxy-3,5-dihydroxy-hexyl)-4-(4-fluoro-phenyl)-1-isopropyl-3-phenyl-1H-pyrrole-2-carbonyl]-amino}-methyl)-benzoic Acid Disodium Salt]"
7,255 to 260 °C,"CC(C)n1c(CC[C@@H](O)C[C@@H](O)CC(=O)[O-])c(-c2ccc(F)cc2)c(-c2ccccc2)c1C(=O)NCc1ccc(C(=O)[O-])cc1.[Na+].[Na+] [Example 164, (3R,5R)-4-({[5-(6-Carboxy-3,5-dihydroxy-hexyl)-4-(4-fluoro-phenyl)-1-isopropyl-3-phenyl-1H-pyrrole-2-carbonyl]-amino}-methyl)-benzoic Acid Disodium Salt]"

# Second part, the compound before the results:
row,SMILES,melting point
1,"CC(C)n1c(/C=C/[C@@H](O)C[C@@H](O)CC(=O)[O-])c(-c2ccc(F)cc2)c(-c2ccccc2)c1C(=O)NCc1ccc(C#N)cc1.[Na+] [Example 145, (3R,5S)-7-[5-(4-Cyano-benzylcarbamoyl)-3-(4-fluoro-phenyl)-1-isopropyl-4-phenyl-1H-pyrrol-2-yl]-3,5-dihydroxy-hept-6-enoic Acid Sodium Salt]",193 to 195 °C
2,"CC(C)n1c(CC[C@@H](O)C[C@@H](O)CC(=O)[O-])c(-c2ccc(F)cc2)c(-c2ccccc2)c1C(=O)NCc1cccc(C#N)c1.[Na+] [Example 146, (3R,5R)-7-[5-(3-Cyano-benzylcarbamoyl)-3-(4-fluoro-phenyl)-1-isopropyl-4-phenyl-1H-pyrrol-2-yl]-3,5-dihydroxy-heptanoic Acid Sodium Salt]",180 to 182 °C
3,"CC(C)n1c(/C=C/[C@@H](O)C[C@@H](O)CC(=O)[O-])c(-c2ccc(F)cc2)c(-c2ccccc2)c1C(=O)NCc1cccc(C#N)c1.[Na+] [Example 147, (3R,5S)-7-[5-(3-Cyano-benzylcarbamoyl)-3-(4-fluoro-phenyl)-1-isopropyl-4-phenyl-1H-pyrrol-2-yl]-3,5-dihydroxy-hept-6-enoic Acid Sodium Salt]",208 to 210 °C
4,"CC(C)OC(=O)c1ccc(CNC(=O)c2c(-c3ccccc3)c(-c3ccc(F)cc3)c(/C=C/[C@@H](O)C[C@@H](O)CC(=O)[O-])n2C(C)C)cc1.[Na+] [Example 149, (3R,5S)-7-[3-(4-Fluoro-phenyl)-5-(4-isopropoxycarbonyl-benzylcarbamoyl)-1-isopropyl-4-phenyl-1H-pyrrol-2-yl]-3,5-dihydroxy-hept-6-enoic Acid Sodium Salt]",222 to 224 °C
5,"COC(=O)c1cccc(CNC(=O)c2c(-c3ccccc3)c(-c3ccc(F)cc3)c(/C=C/[C@@H](O)C[C@@H](O)CC(=O)[O-])n2C(C)C)c1.[Na+] [Example 151, (3R,5S)-7-[3-(4-Fluoro-phenyl)-1-isopropyl-5-(3-methoxycarbonyl-benzylcarbamoyl)-4-phenyl-1H-pyrrol-2-yl]-3,5-dihydroxy-hept-6-enoic Acid Sodium Salt]",171 to 174 °C
6,"COc1ccc([C@@H](C)NC(=O)c2c(-c3ccc(F)cc3)c(-c3ccc(F)cc3)c(/C=C/[C@@H](O)C[C@@H](O)CC(=O)[O-])n2C(C)C)cc1.[Na+] [Example 155, (3R,5S)-7-{3,4-Bis-(4-fluoro-phenyl)-1-isopropyl-5-[(R)-1-(4-methoxy-phenyl)-ethylcarbamoyl]-1H-pyrrol-2-yl)-3,5-dihydroxy-hept-6-enoic Acid Sodium Salt]",255 to 257 °C
7,"CNC(=O)c1c(-c2ccccc2)c(-c2ccc(F)cc2)c(CC[C@@H](O)C[C@@H](O)CC(=O)[O-])n1C(C)C.[Na+] [Example 156, (3R,5R)-7-[3-(4-Fluoro-phenyl)-1-isopropyl-5-methylcarbamoyl-4-phenyl-1H-pyrrol-2-yl]-3,5-dihydroxy-heptanoic Acid Sodium Salt]",238 to 240 °C
8,"CNC(=O)c1c(-c2ccccc2)c(-c2ccc(F)cc2)c(/C=C/[C@@H](O)C[C@@H](O)CC(=O)[O-])n1C(C)C.[Na+] [Example 157, (3R,5S)-7-[3-(4-Fluoro-phenyl)-1-isopropyl-5-methylcarbamoyl-4-phenyl-1H-pyrrol-2-yl]-3,5-dihydroxy-hept-6-enoic Acid Sodium Salt]",224 to 226 °C
9,"CCNC(=O)c1c(-c2ccccc2)c(-c2ccc(F)cc2)c(CC[C@@H](O)C[C@@H](O)CC(=O)[O-])n1C(C)C.[Na+] [Example 158, (3R,5R)-7-[5-Ethylcarbamoyl-3-(4-fluoro-phenyl)-1-isopropyl-4-phenyl-1H-pyrrol-2-yl]-3,5-dihydroxy-heptanoic Acid Sodium Salt]",203 to 205 °C
10,"CCNC(=O)c1c(-c2ccccc2)c(-c2ccc(F)cc2)c(/C=C/[C@@H](O)C[C@@H](O)CC(=O)[O-])n1C(C)C.[Na+] [Example 159, (3R,5S)-7-[5-Ethylcarbamoyl-3-(4-fluoro-phenyl)-1-isopropyl-4-phenyl-1H-pyrrol-2-yl]-3,5-dihydroxy-hept-6-enoic Acid Sodium Salt]",226 to 228 °C
11,"CC(C)n1c(/C=C/[C@@H](O)C[C@@H](O)CC(=O)[O-])c(-c2ccc(F)cc2)c(-c2ccccc2)c1C(N)=O.[Na+] [Example 160, (3R,5S)-7-[5-Carbamoyl-3-(4-fluoro-phenyl)-1-isopropyl-4-phenyl-1H-pyrrol-2-yl]-3,5-dihydroxy-hept-6-enoic Acid Sodium Salt]",238 to 240 °C
12,"CC(C)n1c(CC[C@@H](O)C[C@@H](O)CC(=O)[O-])c(-c2ccc(F)cc2)c(-c2ccccc2)c1C(N)=O.[Na+] [Example 161, (3R,5R)-7-[5-Carbamoyl-3-(4-fluoro-phenyl)-1-isopropyl-4-phenyl-1H-pyrrol-2-yl]-3,5-dihydroxy-heptanoic Acid Sodium Salt]",212 to 214 °C
13,"Cc1ccnc(NC(=O)c2c(-c3ccc(F)cc3)c(-c3ccc(F)cc3)c(C=O)n2C(C)C)n1 [Example 179, 3,4-bis-(4-fluoro-phenyl)-5-formyl-1-isopropyl-1H-pyrrole-2-carboxylic Acid (4-methyl-pyrimidin-2-yl)-amide]",173 to 175 °C
